Reference: PubChem BioAssay AID1745844 (Carcinogenic Potency Database (CPDB), 2022)
Active and inactive are the calls of the source. No rule for the calls is given here.

Tested on: rodent lifetime carcinogenesis bioassay, tumor incidence TD50
Assay: chronic cancer bioassays in animals – CPDB, compiled studies (AID 1745844)

Compound Cn1nc(CO)nc1NCCCOc1cccc(CN2CCCCC2)c1 has a TD50 (rat, strain Charles River CD (Sprague-Dawley), females, in feed, site: stomach, glandular, fundic region, lesion: carcinoid tumor, malignant, dosed 115 weeks, study length 115 weeks) of 272 mg/kg/day and a TD50 (rat, strain Charles River CD (Sprague-Dawley), males, in feed, site: stomach, glandular, fundic region, lesion: carcinoid tumor, malignant, dosed 115 weeks, study length 115 weeks) of 2010 mg/kg/day.

CC1(C)S[C@@H]2[C@H](NC(=O)COc3ccccc3)C(=O)N2[C@H]1C(=O)O was tested, and the carcinogen call (mouse, strain B6C3F1, females, by gavage, site: any site (literature study), lesion: several types, types named in the paper, dosed 104 weeks, study length 104 weeks) was “negative (inactive)”, the TD50 (mouse, strain B6C3F1, females, by gavage, site: liver, lesion: hepatocellular adenoma + hepatocellular carcinoma + neoplastic nodule, dosed 104 weeks, study length 104 weeks) was 10200 mg/kg/day and the TD50 (mouse, strain B6C3F1, females, by gavage, site: lung, lesion: alveolar/bronchiolar adenoma + alveolar/bronchiolar carcinoma, dosed 104 weeks, study length 104 weeks) was 16600 mg/kg/day. The carcinogen call (mouse, strain B6C3F1, males, by gavage, site: any site (literature study), lesion: several types, types named in the paper, dosed 104 weeks, study length 104 weeks) was “negative (inactive)”, the TD50 (rat, strain Fischer 344, females, by gavage, site: any site (literature study), lesion: several types, types named in the paper, dosed 103 weeks, study length 104 weeks) was 503 mg/kg/day and the TD50 (rat, strain Fischer 344, females, by gavage, site: clitoral gland, lesion: adenoma, NOS, dosed 103 weeks, study length 104 weeks) was 3650 mg/kg/day. The TD50 (rat, strain Fischer 344, females, by gavage, site: thyroid gland, lesion: c-cell adenoma + c-cell carcinoma, dosed 103 weeks, study length 104 weeks) was 1360 mg/kg/day (inactive), the TD50 (rat, strain Fischer 344, females, by gavage, site: thyroid gland, lesion: c-cell adenoma, dosed 103 weeks, study length 104 weeks) was 1620 mg/kg/day and the TD50 (rat, strain Fischer 344, males, by gavage, site: any site (literature study), lesion: several types, types named in the paper, dosed 103 weeks, study length 104 weeks) was 544 mg/kg/day. The TD50 (rat, strain Fischer 344, males, by gavage, site: liver, lesion: hepatocellular adenoma + hepatocellular carcinoma + neoplastic nodule, dosed 103 weeks, study length 104 weeks) was 12200 mg/kg/day, the TD50 (rat, strain Fischer 344, males, by gavage, site: pituitary gland, anterior, lesion: adenoma, NOS + carcinoma, NOS, dosed 103 weeks, study length 104 weeks) was 874 mg/kg/day (inactive) and the TD50 (rat, strain Fischer 344, males, by gavage, site: pituitary gland, anterior, lesion: adenoma, NOS, dosed 103 weeks, study length 104 weeks) was 949 mg/kg/day.

Compound CCN(C)N=O has a TD50 (rat, strain Fischer 344, females, in drinking water, site: all sites, lesion: one or several types, types not named, dosed 30 weeks, study length 115 weeks) of 0.0386 mg/kg/day, a TD50 (rat, strain Fischer 344, males, by gavage, site: liver, lesion: hemangiosarcoma, dosed 30 weeks, study length 55 weeks) of 0.12 mg/kg/day and a TD50 (rat, strain Fischer 344, males, by gavage, site: liver, lesion: hepatocellular tumor, benign, dosed 30 weeks, study length 55 weeks) of 0.0503 mg/kg/day. The TD50 (rat, strain Fischer 344, males, by gavage, site: liver, lesion: several types, types named in the paper, dosed 30 weeks, study length 55 weeks) was 0.0503 mg/kg/day, the TD50 (rat, strain Fischer 344, males, by gavage, site: lung, lesion: alveolar/bronchiolar adenoma, dosed 30 weeks, study length 55 weeks) was 0.242 mg/kg/day and the TD50 (rat, strain Fischer 344, males, by gavage, site: nasal mucosa, lesion: one or several types, types not named, dosed 30 weeks, study length 55 weeks) was 0.201 mg/kg/day.

For CCC1CO1 (configuration not stated), the TD50 (mouse, strain B6C3F1, females, inhaled, site: any site (literature study), lesion: several types, types named in the paper, dosed 102 weeks, study length 104 weeks) was 141 mg/kg/day (inactive), the TD50 (mouse, strain B6C3F1, females, inhaled, site: liver, lesion: hepatocellular adenoma + hepatocellular carcinoma + neoplastic nodule, dosed 102 weeks, study length 104 weeks) was 445 mg/kg/day and the TD50 (mouse, strain B6C3F1, females, inhaled, site: lung, lesion: alveolar/bronchiolar adenoma + alveolar/bronchiolar carcinoma, dosed 102 weeks, study length 104 weeks) was 834 mg/kg/day. For the same compound, the TD50 (mouse, strain B6C3F1, males, inhaled, site: any site (literature study), lesion: several types, types named in the paper, dosed 102 weeks, study length 104 weeks) was 2470 mg/kg/day (inactive), the TD50 (mouse, strain B6C3F1, males, inhaled, site: liver, lesion: hepatocellular adenoma + hepatocellular carcinoma + neoplastic nodule, dosed 102 weeks, study length 104 weeks) was 8600 mg/kg/day and the TD50 (rat, strain Fischer 344, females, inhaled, site: any site (literature study), lesion: several types, types named in the paper, dosed 103 weeks, study length 105 weeks) was 78 mg/kg/day. For the same compound, the TD50 (rat, strain Fischer 344, females, inhaled, site: nasal cavity, lesion: papillary adenoma, dosed 103 weeks, study length 105 weeks) was 1730 mg/kg/day, the TD50 (rat, strain Fischer 344, females, inhaled, site: ovary, lesion: granulosa-cell carcinoma + granulosa-cell tumor + thecoma, dosed 103 weeks, study length 105 weeks) was 545 mg/kg/day and the TD50 (rat, strain Fischer 344, females, inhaled, site: pituitary gland, anterior, lesion: adenoma, NOS, dosed 103 weeks, study length 105 weeks) was 83.8 mg/kg/day. For the same compound, the TD50 (rat, strain Fischer 344, females, inhaled, site: thyroid gland, lesion: follicular-cell adenoma + follicular-cell carcinoma, dosed 103 weeks, study length 105 weeks) was 509 mg/kg/day, the TD50 (rat, strain Fischer 344, males, inhaled, site: any site (literature study), lesion: several types, types named in the paper, dosed 103 weeks, study length 105 weeks) was 79.6 mg/kg/day and the TD50 (rat, strain Fischer 344, males, inhaled, site: liver, lesion: hepatocellular adenoma + hepatocellular carcinoma + neoplastic nodule, dosed 103 weeks, study length 105 weeks) was 622 mg/kg/day. For the same compound, the TD50 (rat, strain Fischer 344, males, inhaled, site: lung + nasal cavity, lesion: alveolar/bronchiolar adenoma + alveolar/bronchiolar carcinoma + papillary adenoma, dosed 103 weeks, study length 105 weeks) was 106 mg/kg/day, the TD50 (rat, strain Fischer 344, males, inhaled, site: lung, lesion: alveolar/bronchiolar adenoma + alveolar/bronchiolar carcinoma, dosed 103 weeks, study length 105 weeks) was 220 mg/kg/day and the TD50 (rat, strain Fischer 344, males, inhaled, site: lung, lesion: alveolar/bronchiolar carcinoma, dosed 103 weeks, study length 105 weeks) was 314 mg/kg/day. For the same compound, the TD50 (rat, strain Fischer 344, males, inhaled, site: multiple organs + spleen, lesion: mononuclear-cell leukemia, dosed 103 weeks, study length 105 weeks) was 30.7 mg/kg/day and the TD50 (rat, strain Fischer 344, males, inhaled, site: nasal cavity, lesion: papillary adenoma, dosed 103 weeks, study length 105 weeks) was 220 mg/kg/day.

In the case of CC(C)(OCc1ccc(-c2ccc(Cl)cc2)cc1)C(=O)O, the carcinogen call (hamster, strain Syrian Golden, females, in feed, site: liver, lesion: one or several types, types not named, dosed 104 weeks, study length 104 weeks) is reported as “negative (inactive)”, the carcinogen call (hamster, strain Syrian Golden, females, in feed, site: lung, lesion: one or several types, types not named, dosed 104 weeks, study length 104 weeks) is reported as “negative (inactive)” and the carcinogen call (hamster, strain Syrian Golden, males, in feed, site: liver, lesion: one or several types, types not named, dosed 104 weeks, study length 104 weeks) is reported as “negative (inactive)”. The TD50 (hamster, strain Syrian Golden, males, in feed, site: lung, lesion: one or several types, types not named, dosed 104 weeks, study length 104 weeks) was 1510 mg/kg/day (inactive), the TD50 (mouse, strain C57BL/10J, females, in feed, site: liver, lesion: hepatocellular carcinoma, dosed 78 weeks, study length 78 weeks) was 870 mg/kg/day and the TD50 (mouse, strain C57BL/10J, females, in feed, site: lung, lesion: one or several types, types not named, dosed 78 weeks, study length 78 weeks) was 1010 mg/kg/day. The TD50 (mouse, strain C57BL/10J, males, in feed, site: liver, lesion: hepatocellular adenoma, dosed 78 weeks, study length 78 weeks) was 154 mg/kg/day, the TD50 (mouse, strain C57BL/10J, males, in feed, site: liver, lesion: hepatocellular carcinoma, dosed 78 weeks, study length 78 weeks) was 214 mg/kg/day and the TD50 (rat, strain Alpk:APfSD, males, in feed, site: liver, lesion: hepatocellular adenoma, dosed 104 weeks, study length 104 weeks) was 62.5 mg/kg/day.

Compound CC(O)CN(CCO)N=O (configuration not stated) has a TD50 (rat, strain Fischer 344, females, in drinking water, site: esophagus, lesion: several types, types named in the paper, dosed 50 weeks, study length 75 weeks) of 6.74 mg/kg/day, a TD50 (rat, strain Fischer 344, females, in drinking water, site: liver, lesion: angiosarcoma, dosed 50 weeks, study length 75 weeks) of 4.5 mg/kg/day and a TD50 (rat, strain Fischer 344, females, in drinking water, site: liver, lesion: hepatocellular carcinoma, dosed 50 weeks, study length 75 weeks) of 1.02 mg/kg/day. For the same compound, the TD50 (rat, strain Fischer 344, females, in drinking water, site: liver, lesion: several types, types named in the paper, dosed 50 weeks, study length 75 weeks) was 1.12 mg/kg/day and the TD50 (rat, strain Fischer 344, females, in drinking water, site: nasal cavity, lesion: olfactory carcinoma, dosed 50 weeks, study length 75 weeks) was 5.44 mg/kg/day.

For CN(C)NC(=O)CCC(=O)O, the TD50 (mouse, strain B6C3F1, females, in feed, site: any site (literature study), lesion: several types, types named in the paper, dosed 104 weeks, study length 105 weeks) was 56400 mg/kg/day (inactive), the TD50 (mouse, strain B6C3F1, females, in feed, site: liver, lesion: hepatocellular adenoma + hepatocellular carcinoma + neoplastic nodule, dosed 104 weeks, study length 105 weeks) was 6820 mg/kg/day and the TD50 (mouse, strain B6C3F1, females, in feed, site: lung, lesion: alveolar/bronchiolar adenoma + alveolar/bronchiolar carcinoma, dosed 104 weeks, study length 105 weeks) was 2920 mg/kg/day. It also gave a TD50 (mouse, strain B6C3F1, males, in feed, site: any site (literature study), lesion: several types, types named in the paper, dosed 104 weeks, study length 105 weeks) of 1500 mg/kg/day, a TD50 (mouse, strain B6C3F1, males, in feed, site: liver, lesion: hepatocellular adenoma + hepatocellular carcinoma + neoplastic nodule, dosed 104 weeks, study length 105 weeks) of 2450 mg/kg/day and a TD50 (mouse, strain B6C3F1, males, in feed, site: liver, lesion: hepatocellular adenoma + hepatocellular carcinoma, dosed 104 weeks, study length 105 weeks) of 2450 mg/kg/day. For the same compound, the TD50 (mouse, strain B6C3F1, males, in feed, site: liver, lesion: hepatocellular carcinoma, dosed 104 weeks, study length 105 weeks) was 2150 mg/kg/day, the TD50 (mouse, strain B6C3F1, males, in feed, site: lung, lesion: alveolar/bronchiolar adenoma + alveolar/bronchiolar carcinoma, dosed 104 weeks, study length 105 weeks) was 3400 mg/kg/day and the TD50 (mouse, strain Swiss albino, females, in drinking water, site: blood vessels, lesion: several types, types named in the paper, dosed 92 weeks, study length 92 weeks) was 1240 mg/kg/day. It also gave a TD50 (mouse, strain Swiss albino, females, in drinking water, site: lung, lesion: several types, types named in the paper, dosed 92 weeks, study length 92 weeks) of 1370 mg/kg/day, a TD50 (mouse, strain Swiss albino, males, in drinking water, site: blood vessels, lesion: several types, types named in the paper, dosed 81 weeks, study length 81 weeks) of 880 mg/kg/day and a TD50 (mouse, strain Swiss albino, males, in drinking water, site: kidney, lesion: adenoma, dosed 81 weeks, study length 81 weeks) of 10900 mg/kg/day. The TD50 (mouse, strain Swiss albino, males, in drinking water, site: liver, lesion: hepatoma, dosed 81 weeks, study length 81 weeks) was 38800 mg/kg/day (inactive), the TD50 (mouse, strain Swiss albino, males, in drinking water, site: lung, lesion: several types, types named in the paper, dosed 81 weeks, study length 81 weeks) was 1110 mg/kg/day and the TD50 (rat, strain Fischer 344, females, in feed, site: any site (literature study), lesion: several types, types named in the paper, dosed 104 weeks, study length 105 weeks) was 3450 mg/kg/day. For the same compound, the TD50 (rat, strain Fischer 344, females, in feed, site: liver, lesion: hepatocellular adenoma + hepatocellular carcinoma + neoplastic nodule, dosed 104 weeks, study length 105 weeks) was 9640 mg/kg/day, the TD50 (rat, strain Fischer 344, females, in feed, site: lung, lesion: alveolar/bronchiolar adenoma, dosed 104 weeks, study length 105 weeks) was 4890 mg/kg/day and the TD50 (rat, strain Fischer 344, females, in feed, site: uterus + uterus, endometrium, lesion: leiomyosarcoma + adenocarcinoma, NOS, dosed 104 weeks, study length 105 weeks) was 1840 mg/kg/day. For the same compound, the TD50 (rat, strain Fischer 344, females, in feed, site: uterus, endometrium, lesion: adenocarcinoma, NOS, dosed 104 weeks, study length 105 weeks) was 2500 mg/kg/day, the TD50 (rat, strain Fischer 344, females, in feed, site: uterus, lesion: leiomyosarcoma, dosed 104 weeks, study length 105 weeks) was 5270 mg/kg/day and the carcinogen call (rat, strain Fischer 344, males, in feed, site: any site (literature study), lesion: several types, types named in the paper, dosed 104 weeks, study length 105 weeks) was “negative (inactive)”.
